{"source": "patent US20230322846A9", "about": "“NEUROACTIVE STEROIDS AND THEIR METHODS OF USE” (SAGE THERAPEUTICS, INC., priority 2018, published 2023)", "data": [{"target": "[35S]-TBPS binding, rat brain cortical membranes", "experiment": "Steroid inhibition of [35S]-TBPS binding", "conditions": "3 nM [35S]-TBPS, in the presence of 5 mM GABA", "outline": "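Rat cortical P2 membranes incubated 90 min at room temperature with 3 nM [35S]-TBPS, […] and test compound (0.5% DMSO final) in NaCl/Na–K phosphate pH 7.4; nonspecific binding with […]. Filter-bound radioactivity counted; IC50 and Imax from nonlinear fits, mean ± SEM.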", "units": {"IC50": "µM"}, "values": [{"molecule": "COC[C@@]1(O)CC[C@H]2[C@H](CC[C@@H]3[C@@H]2CC[C@]2(C)[C@@H]([C@@H](C)NC(=O)c4ccc(F)cc4F)CC[C@@H]32)C1", "note": "[Example 134]", "IC50": "< 0.1"}, {"molecule": "C[C@H](Cn1cc(C#N)cn1)[C@H]1CC[C@H]2[C@@H]3CC[C@@H]4C[C@](C)(O)CC[C@]4(C)[C@H]3CC[C@]12C", "note": "[Example 306, 1-((S)-2-((3R,5R,8R,9S,10S,13S,14S,17R)-3-hydroxy-3,10,13-trimethylhexadecahydro-1H-cyclopenta[a]phenanthren-17-yl)propyl)-1H-pyrazole-4-carbonitrile]", "IC50": "< 0.1"}, {"molecule": "Cc1cc(C#N)ccc1N[C@H]([C@H]1CC[C@H]2[C@@H]3CC[C@@H]4C[C@](C)(O)CC[C@@H]4[C@H]3CC[C@]12C)C(F)(F)F", "note": "[Example 490, 3-methyl-4-(((R)-2,2,2-trifluoro-1-((3R,5R,8R,9R,10S,13S,14S,17S)-3-hydroxy-3,13-dimethylhexadecahydro-1H-cyclopenta[a]phenanthren-17-yl)ethyl)amino)benzonitrile]", "IC50": "0.1 to 1"}, {"molecule": "CCC[C@@]1(O)CC[C@@]2(C)[C@H](CC[C@@H]3[C@@H]2[C@H](O)C[C@]2(C)[C@@H]([C@H](C)Cn4cc(C#N)cn4)CC[C@@H]32)C1", "note": "[Example 338, 1-((S)-2-((3R,5R,8S,9S,10S,11R,13S,14S,17R)-3,11-dihydroxy-10,13-dimethyl-3-propylhexadecahydro-1H-cyclopenta[a]phenanthren-17-yl)propyl)-1H-pyrazole-4-carbonitrile]", "IC50": "0.1 to 1"}, {"molecule": "CCOC[C@@]1(O)CC[C@H]2[C@H](CC[C@@H]3[C@@H]2CC[C@]2(C)[C@@H]([C@H](C)Cc4cccc(C#N)c4)CC[C@@H]32)C1", "note": "[Example 403, 3-((R)-2-((3R,5R,8R,9R,10S,13R,14S,17R)-3-(ethoxymethyl)-3-hydroxy-13-methylhexadecahydro-1H-cyclopenta[a]phenanthren-17-yl)propyl)benzonitrile]", "IC50": "0.1 to 1"}, {"molecule": "COC[C@@]1(O)CC[C@H]2[C@H](CC[C@@H]3[C@@H]2CC[C@]2(C)[C@@H]([C@H](C)Nc4cccc(C#N)c4)CC[C@@H]32)C1", "note": "[Example 255]", "IC50": "1 to 10"}, {"molecule": "C[C@@H](Cc1ncc(CO)s1)[C@H]1CC[C@H]2[C@@H]3CC[C@@H]4C[C@](C)(O)CC[C@@H]4[C@H]3CC[C@]12C", "note": "[Example 428]", "IC50": "< 0.1"}, {"molecule": "COC[C@@]1(O)CC[C@H]2[C@H](CC[C@@H]3[C@@H]2CC[C@]2(C)[C@@H]([C@H](C)NC(=O)c4ccc(C#N)cn4)CC[C@@H]32)C1", "note": "[Example 32, 5-cyano-N—((S)-1-((3R,5R,8R,9R,10S,13S,14S,17S)-3-hydroxy-3-(methoxymethyl)-13-methylhexadecahydro-1H-cyclopenta[a]phenanthren-17-yl)ethyl)picolinamide]", "IC50": "1 to 10"}, {"molecule": "C[C@H](NC(=O)c1ccccn1)[C@H]1CC[C@H]2[C@@H]3CC[C@@H]4C[C@](C)(O)CC[C@@H]4[C@H]3CC[C@]12C", "note": "[Example 101]", "IC50": "1 to 10"}, {"molecule": "CCC[C@@]1(O)CC[C@H]2[C@@H](CC[C@@H]3[C@@H]2CC[C@]2(C)[C@@H]([C@H](C)Cn4nnc(C)n4)CC[C@@H]32)C1", "note": "[Example 330, (3R,5S,8R,9R,10S,13S,14S,17R)-13-methyl-17-((S)-1-(5-methyl-2H-tetrazol-2-yl)propan-2-yl)-3-propylhexadecahydro-1H-cyclopenta[a]phenanthren-3-ol]", "IC50": "≥ 10"}, {"molecule": "C[C@H](NC(=O)c1ccccc1F)[C@H]1CC[C@H]2[C@@H]3CC[C@@H]4C[C@](C)(O)CC[C@@H]4[C@H]3CC[C@]12C", "note": "[Example 102]", "IC50": "1 to 10"}, {"molecule": "C[C@@H](NC(=O)c1ccc(C#N)cc1F)[C@H]1CC[C@H]2[C@@H]3CC[C@@H]4C[C@](C)(O)CC[C@@H]4[C@H]3CC[C@]12C", "note": "[Example 130]", "IC50": "< 0.1"}, {"molecule": "C[C@@H](Cc1nc(C(F)(F)F)cs1)[C@H]1CC[C@H]2[C@@H]3CC[C@@H]4C[C@](C)(O)CC[C@@H]4[C@H]3CC[C@]12C", "note": "[Example 449]", "IC50": "< 0.1"}, {"molecule": "CCOC[C@@]1(O)CC[C@@]2(C)[C@H](CC[C@@H]3[C@@H]2CC[C@]2(C)[C@@H]([C@@H](C)NS(=O)(=O)c4ccc(C#N)cn4)CC[C@@H]32)C1", "note": "[Example 77, 5-cyano-N—((R)-1-((3R,5R,8R,9S,10S,13S,14S,17S)-3-(ethoxymethyl)-3-hydroxy-10,13-dimethylhexadecahydro-1H-cyclopenta[a]phenanthren-17-yl)ethyl)pyridine-2-sulfonamide]", "IC50": "< 0.1"}, {"molecule": "C[C@H](N[C@H](C)[C@H]1CC[C@H]2[C@@H]3CC[C@@H]4C[C@](C)(O)CC[C@@H]4[C@H]3CC[C@]12C)c1ccccc1", "note": "[Example 209]", "IC50": "0.1 to 1"}, {"molecule": "CCOC[C@@]1(O)CC[C@H]2[C@H](CC[C@@H]3[C@@H]2CC[C@]2(C)[C@@H]([C@@H](C)NS(=O)(=O)c4ccc(C#N)cn4)CC[C@@H]32)C1", "note": "[Example 73]", "IC50": "< 0.1"}, {"molecule": "C[C@H](NC(=O)c1ccccc1)[C@H]1CC[C@H]2[C@@H]3CC[C@@H]4C[C@](C)(O)CC[C@@H]4[C@H]3CC[C@]12C", "note": "[Example 23, N—((S)-1-((3R,5R,8R,9R,10S,13S,14S,17S)-3-hydroxy-3,13-dimethylhexadecahydro-1H-cyclopenta[a]phenanthren-17-yl)ethyl)benzamide]", "IC50": "1 to 10"}, {"molecule": "C[C@H]([C@H]1CC[C@H]2[C@@H]3CC[C@@H]4C[C@](C)(O)CC[C@@H]4[C@H]3CC[C@]12C)N1Cc2cc(C#N)ccc2C1=O", "note": "[Example 40, 2-((R)-1-((3R,5R,8R,9R,10S,13S,14S,17S)-3-hydroxy-3,13-dimethylhexadecahydro-1H-cyclopenta[a]phenanthren-17-yl)ethyl)-1-oxoisoindoline-5-carbonitrile]", "IC50": "< 0.1"}, {"molecule": "C[C@@H](Cn1cc(C#N)cn1)[C@@]1(O)CC[C@H]2[C@@H]3CC[C@@H]4C[C@](C)(O)CC[C@@H]4[C@H]3CC[C@@]21C", "note": "[Example 345, 1-((S)-2-((3R,5R,8R,9R,10S,13S,14S,17S)-3,17-dihydroxy-3,13-dimethylhexadecahydro-1H-cyclopenta[a]phenanthren-17-yl)propyl)-1H-pyrazole-4-carbonitrile]", "IC50": "1 to 10"}, {"molecule": "C[C@H](Cc1nc(C(F)(F)F)cs1)[C@H]1CC[C@H]2[C@@H]3CC[C@@H]4C[C@](C)(O)CC[C@@H]4[C@H]3CC[C@]12C", "note": "[Example 450]", "IC50": "0.1 to 1"}, {"molecule": "CC[C@H](Nc1cccc(C#N)c1)[C@H]1CC[C@H]2[C@@H]3CC[C@@H]4C[C@@](O)(COC)CC[C@@H]4[C@H]3CC[C@]12C", "note": "[Example 496, 3-(((S)-1-((3R,5R,8R,9R,10S,13S,14S,17S)-3-hydroxy-3-(methoxymethyl)-13-methylhexadecahydro-1H-cyclopenta[a]phenanthren-17-yl)propyl)amino)benzonitrile]", "IC50": "0.1 to 1"}, {"molecule": "CCOC[C@@]1(O)CC[C@H]2[C@H](CC[C@@H]3[C@@H]2CC[C@]2(C)[C@@H]([C@@H](CC)Cn4nccc4C#N)CC[C@@H]32)C1", "note": "[Example 500, 1-((R)-2-((3R,5R,8R,9R,10S,13S,14S,17R)-3-(ethoxymethyl)-3-hydroxy-13-methylhexadecahydro-1H-cyclopenta[a]phenanthren-17-yl)butyl)-1H-pyrazole-5-carbonitrile]", "IC50": "1 to 10"}, {"molecule": "COC[C@@]1(O)CC[C@@]2(C)[C@H](CC[C@@H]3[C@@H]2CC[C@@]2(C)[C@H]3CC[C@]2(O)[C@H](C)Cn2cc(C#N)cn2)C1", "note": "[Example 352, 1-((R)-2-((3R,5R,8R,9S,10S,13S,14S,17S)-3,17-dihydroxy-3-(methoxymethyl)-10,13-dimethylhexadecahydro-1H-cyclopenta[a]phenanthren-17-yl)propyl)-1H-pyrazole-4-carbonitrile]", "IC50": "1 to 10"}, {"molecule": "C[C@H](Cc1ccc(C(F)(F)F)nc1)[C@H]1CC[C@H]2[C@@H]3CC[C@@H]4C[C@](C)(O)CC[C@@H]4[C@H]3CC[C@]12C", "note": "[Example 444]", "IC50": "0.1 to 1"}, {"molecule": "C[C@@H](Cc1nccc(C#N)n1)[C@H]1CC[C@H]2[C@@H]3CC[C@@H]4C[C@](C)(O)CC[C@@H]4[C@H]3CC[C@]12C", "note": "[Example 435]", "IC50": "< 0.1"}, {"molecule": "C[C@@H](Nc1cccc(C#N)c1)[C@H]1CC[C@H]2[C@@H]3CC[C@@H]4C[C@](C)(O)CC[C@@H]4[C@H]3CC[C@]12C", "note": "[Example 202]", "IC50": "< 0.1"}, {"molecule": "C[C@@H]([C@H]1CC[C@H]2[C@@H]3CC[C@@H]4C[C@](C)(O)CC[C@@H]4[C@H]3CC[C@]12C)n1nccn1", "note": "[Example 164, (3R,5R,8R,9R,10S,13S,14S,17S)-17-((S)-1-(2H-1,2,3-triazol-2-yl)ethyl)-3,13-dimethylhexadecahydro-1H-cyclopenta[a]phenanthren-3-ol]", "IC50": "1 to 10"}, {"molecule": "CCC[C@@]1(O)CC[C@H]2[C@H](CC[C@@H]3[C@@H]2CC[C@]2(C)[C@@H]([C@@H](C)Cc4ccc(C(F)(F)F)nc4)CC[C@@H]32)C1", "note": "[Example 410]", "IC50": "0.1 to 1"}, {"molecule": "COc1cccc(C(=O)N[C@@H](C)[C@H]2CC[C@H]3[C@@H]4CC[C@@H]5C[C@](C)(O)CC[C@@H]5[C@H]4CC[C@]23C)c1", "note": "[Example 105]", "IC50": "1 to 10"}, {"molecule": "COC[C@@]1(O)CC[C@H]2[C@H](CC[C@@H]3[C@@H]2CC[C@]2(C)[C@@H](CNC(=O)c4ccccc4)CC[C@@H]32)C1", "note": "[Example 16, N-(((3R,5R,8R,9R,10S,13S,14S,17S)-3-hydroxy-3-(methoxymethyl)-13-methylhexadecahydro-1H-cyclopenta[a]phenanthren-17-yl)methyl)benzamide]", "IC50": "< 0.1"}]}]}
